Our source for the EC50 values is US20070037816A1, “Bicyclic piperazines as metabotropic glutatmate receptor antagonists” (AstraZeneca AB, priority 2005, published 2007).

This assay addresses T1, human mGluR5d (Homo sapiens, UniProt P41594).
T1 construct: expressed in transfected cells; host or cells: GHEK (HEK cells expressing a glutamate transporter) for the IP3 assay
The assay is described as follows: Functional assessment of mGluR5 antagonism in cell lines expressing mGluR5d (FLIPR calcium mobilization / IP3 turnover; assay not given). The following applies: cells expressing human mGluR5d; assay (FLIPR or IP3) not stated. It counts as cell-based. The source says:
The pharmacological properties of the compounds of the invention can be analyzed using standard assays for functional activity. Examples of glutamate receptor assays are well known in the art as described in for example Aramori et al., Neuron 8:757 (1992), Tanabe et al., Neuron 8:169 (1992), Miller et al., J. Neuroscience 15: 6103 (1995), Balazs, et al., J. Neurochemistry 69:151 (1997). The methodology described in these publications is incorporated herein by reference. Conveniently, the compounds of the invention can be studied by means of an assay that measures the mobilization of intracellular calcium, [Ca^2+]i in cells expressing mGluR5.
Intracellular calcium mobilization was measured by detecting changes in fluorescence of cells loaded with the fluorescent indicator fluo-3. Fluorescent signals were measured using the FLIPR system (Molecular Devices). A two addition experiment was used that could detect compounds that either activate or antagonize the receptor.
For FLIPR analysis, cells expressing human mGluR5d were seeded on collagen coated clear bottom 96-well plates with black sides and analysis of [Ca^2+]i mobilization was done 24 hours after seeding.
FLIPR experiments were done using a laser setting of 0.800 W and a 0.4 second CCD camera shutter speed. Each FLIPR experiment was initiated with 160 μL of buffer present in each well of the cell plate. After each addition of the compound, the fluorescence signal was sampled 50 times at 1 second intervals followed by 3 samples at 5 second intervals. Responses were measured as the peak height of the response within the sample period.
EC50 and IC50 determinations were made from data obtained from 8-point concentration response curves (CRC) performed in duplicate. Agonist CRC were generated by scaling all responses to the maximal response observed for the plate. Antagonist block of the agonist challenge was normalized to the average response of the agonist challenge in 14 control wells on the same plate.
We have validated a secondary functional assay for mGluR5d based on Inositol Phosphate (IP3) turnover. IP3 accumulation is measured as an index of receptor mediated phospholipase C turnover. GHEK cells stably expressing the human mGluR5d receptors were incubated with [3H] myo-inositol overnight, washed three times in HEPES buffered saline and pre-incubated for 10 minutes with 10 mM LiCl. Compounds (agonists) were added and incubated for 30 minutes at 37° C. Antagonist activity was determined by pre-incubating test compounds for 15 minutes, then incubating in the presence of glutamate (80 μM) or DHPG (30 μM) for 30 minutes. Reactions were terminated by the addition of perchloric acid (5%). Samples were collected and neutralized, and inositol phosphates were separated using Gravity-Fed Ion-Exchange Columns.
Functional Assessment of mGluR5 Antagonism in Cell Lines Expressing mGluR5d
The properties of the compounds of the invention can be analyzed using standard assays for pharmacological activity. Examples of glutamate receptor assays are well known in the art as described in for example Aramori et al, Neuron 8:757 (1992), Tanabe et al., Neuron 8:169 (1992), Miller et al, J. Neuroscience 15: 6103 (1995), Balazs, et al, J. Neurochemistry 69:151 (1997). The methodology described in these publications is incorporated herein by reference. Conveniently, the compounds of the invention can be studied by means of an assay (FLIPR) that measures the mobilization of intracellular calcium, [Ca^2+]i in cells expressing mGluR5 or another assay (IP3) that measures inositol phosphate turnover.
Cells expressing human mGluR5d as described in W097/05252 are seeded at a density of 100,000 cells per well on collagen coated clear bottom 96-well plates with black sides and experiments are done 24 h following seeding. […]
Background: Calcium assays in cells follow changes in intracellular calcium, usually with a dye or a luminescent sensor.

T1 sequence (P41594 21-942 isoform P41594-3 limits assumed): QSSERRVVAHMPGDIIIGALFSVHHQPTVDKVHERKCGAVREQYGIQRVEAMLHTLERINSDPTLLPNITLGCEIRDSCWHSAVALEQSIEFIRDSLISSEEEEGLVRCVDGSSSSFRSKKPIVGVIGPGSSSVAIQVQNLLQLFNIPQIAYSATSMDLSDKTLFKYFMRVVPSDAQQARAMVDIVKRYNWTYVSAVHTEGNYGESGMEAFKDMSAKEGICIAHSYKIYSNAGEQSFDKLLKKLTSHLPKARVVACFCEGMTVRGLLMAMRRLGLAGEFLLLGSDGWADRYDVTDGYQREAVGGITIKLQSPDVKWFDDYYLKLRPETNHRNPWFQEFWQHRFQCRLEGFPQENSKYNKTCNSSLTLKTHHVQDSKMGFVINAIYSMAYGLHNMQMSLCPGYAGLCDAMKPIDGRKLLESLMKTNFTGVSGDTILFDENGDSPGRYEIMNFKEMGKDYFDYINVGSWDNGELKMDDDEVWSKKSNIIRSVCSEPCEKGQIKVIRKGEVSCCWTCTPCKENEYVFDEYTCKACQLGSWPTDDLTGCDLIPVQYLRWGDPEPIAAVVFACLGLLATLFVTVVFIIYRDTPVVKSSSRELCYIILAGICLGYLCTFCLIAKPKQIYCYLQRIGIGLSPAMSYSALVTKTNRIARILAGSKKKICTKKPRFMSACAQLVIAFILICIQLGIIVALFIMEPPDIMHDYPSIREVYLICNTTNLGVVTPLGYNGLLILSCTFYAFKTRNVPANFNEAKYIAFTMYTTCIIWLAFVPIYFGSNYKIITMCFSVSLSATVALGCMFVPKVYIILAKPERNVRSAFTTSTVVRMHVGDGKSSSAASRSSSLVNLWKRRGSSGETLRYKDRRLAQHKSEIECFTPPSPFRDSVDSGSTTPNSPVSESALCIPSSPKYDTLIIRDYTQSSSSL

Turning to `N#Cc1cccnc1N1CCN2[C@@H](CC[C@@H]2c2cn(-c3cccc(F)c3)nn2)C1` (racemic) [Example 4.1, (±)-2-[(6R,8aS)-6-[1-(3-fluorophenyl)-1H-1,2,3-triazol4-yl]hexahydropyrrolo[1,2-a]pyrazin-2(1H)-yl]nicotinonitrile], the concentration giving a half-maximal response (EC50) is 219 nM.

For the molecule `N#Cc1nccnc1N1CCN2[C@@H](CC[C@@H]2c2nnn(-c3cccc(Cl)c3)n2)C1` (racemic) [Example 5.1, (±)-3-[(6R,8aS)-6-[2-(3-chlorophenyl)-2H-tetrazol-5-yl]hexahydropyrrolo[1,2-a]pyrazin-2(1H)-yl]pyrazine-2-carbonitrile], the half-maximal effective concentration (EC50) stood at 10 nM.

As to `Cc1cccc(-n2nnc([C@H]3CC[C@H]4CN(c5ncccc5C#N)CCN43)n2)c1` (racemic) [Example 5.4, (±)-2-[(6R,8aS)-6-[2-(3-methylphenyl)-2H-tetrazol-5-yl]hexahydropyrrolo[1,2-a]pyrazin-2(1H)-yl]nicotinonitrile], the EC50 was found to be 16 nM.

As to `N#Cc1ccc(N2CCN3[C@@H](CC[C@@H]3c3cc(-c4cccc(Cl)c4)on3)C2)nc1` (racemic) [Example 6.2, (±)-6-[(6R,8aS)-6-[5-(3-chlorolphenyl)isoxazol-3-yl]hexahydropyrrolo[1,2-a]pyrazin-2(1H)-yl]nicotinonitrile], the EC50 is 2410 nM.

For the molecule `N#Cc1nccnc1N1CCN2[C@@H](CC[C@@H]2c2cc(-c3cccc(Cl)c3)no2)C1` (racemic) [Example 8.1, (±)-3-[(6R,8aS)-6-[3-(3-chlorophenyl)isoxazol-5-yl]hexahydropyrrolo[1,2-a]pyrazin-2(1H)-yl]pyrazine-2-carbonitrile], the EC50 was determined as 377 nM.

As for `N#Cc1cccc(-c2cc([C@H]3CCC[C@H]4CN(c5nccnc5C#N)CCN43)no2)c1` (racemic) [Example 13.1, (±)-3-[(6R,9aS)-6-[5-(3-cyanophenyl)isoxazol-3-yl]octahydro-2H-pyrido[1,2-a]pyrazin-2-yl]pyrazine-2-carbonitrile], the EC50 was determined as 159 nM.

Broadly, the EC50 is the concentration giving half of the maximal effect.
